Data published in patent US5232917A, “Methods, compositions, and compounds for allosteric modulation of the GABA receptor by members of the androstane and pregnane series” (priority 1991, dated 1993).
Read-outs that look alike come from different tables or passages of the source.

Columns and labels:
[1] = tested on: maximal electroshock seizure; conditions: Swinyard & Woodhead, 1982; cited from earlier work
[2] = tested on: metrazol-induced convulsions; conditions: Swinyard & Woodhead, 1982; cited from earlier work
[3] = tested on: (+)bicuculline-induced seizures; conditions: Swinyard & Woodhead, 1982; cited from earlier work
[4] = tested on: picrotoxin-induced convulsions; conditions: Swinyard & Woodhead, 1982; cited from earlier work
[5] = tested on: strychnine-induced convulsions; conditions: Swinyard & Woodhead, 1982; cited from earlier work
[6] = Swinyard & Woodhead, 1982; cited from earlier work
[7] = tested on: metrazol induced convulsions; assay: Inhibition of metrazol induced convulsions (Table 2); type: in vivo, mice; conditions: Mus musculus
Procedure: Experiments were also performed to determine the physiological relevance of these interactions by measuring the ability of the compound of and used in the invention to modulate TBPS-induced convulsions in Swiss-Webster mice. […] The time to onset of myoclonus (presence of forelimb clonic activity) induced by TBPS was determined by observing each mouse for a period of 45 minutes. Significant differences between the time to onset in control mice vs. steroid-treated mice were determined by Student's t-test. […] The number of animals with tonic and/or clonic convulsions was recorded. In the maximal electroshock test, 50 mA of current at 60 Hz was delivered through corneal electrodes for 200 msec to induce tonic seizure. […] The ED50 (the dose at which the half-maximal effect occurs) was determined for each screen.
Adult male CFI mice (20-30g) were used in these studies. […] Percent protection against metrazol-induced seizures was plotted against time after administration of the compound. […] Ten to twelve mice were used per dose of test drug. […] The number of animals with tonic and/or clonic convulsions was recorded. The ability of the steroid to abolish the tonic component was defined as the endpoint. Sedative potential was determined by a rotorod test where the number of mice staying on a rotating (6 rpm) rod for ≥1 min. in each of three trials was determined.

[8] = molecular target: T1, estrogen receptor (Bos taurus, UniProt P49884); assay: Inhibition of 3H-estradiol binding to bovine uteral estrogen receptors; conditions: read-out: % of inhibition of 3H-estradiol binding, B, competitor 10^-6 M; 0.25 nM 3H-estradiol
T1 construct: from tissue; host or cells: bovine uterus cytosol
T1 sequence (P49884 1-596): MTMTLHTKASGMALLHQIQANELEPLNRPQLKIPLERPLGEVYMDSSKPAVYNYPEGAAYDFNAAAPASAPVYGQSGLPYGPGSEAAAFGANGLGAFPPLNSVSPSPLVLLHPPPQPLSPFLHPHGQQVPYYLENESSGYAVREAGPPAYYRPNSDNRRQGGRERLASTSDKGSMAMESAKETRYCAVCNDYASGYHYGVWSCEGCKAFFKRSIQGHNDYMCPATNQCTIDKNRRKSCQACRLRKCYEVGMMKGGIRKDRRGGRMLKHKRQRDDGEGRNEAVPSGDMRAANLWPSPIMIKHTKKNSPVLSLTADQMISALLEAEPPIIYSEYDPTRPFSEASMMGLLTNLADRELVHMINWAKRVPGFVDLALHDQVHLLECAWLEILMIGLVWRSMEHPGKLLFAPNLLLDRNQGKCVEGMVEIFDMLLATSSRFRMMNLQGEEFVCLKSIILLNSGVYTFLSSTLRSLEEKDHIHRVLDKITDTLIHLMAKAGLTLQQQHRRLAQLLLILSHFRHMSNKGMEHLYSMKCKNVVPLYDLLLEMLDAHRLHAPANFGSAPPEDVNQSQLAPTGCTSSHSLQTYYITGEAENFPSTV
Procedure: (§1) The hormonal activity of drugs described herein was further studied through testing their potential estrogenic, progestinic, mineralocorticoid and glucocorticoid activities. These activities were analyzed by monitoring the ability of the drugs to inhibit binding of the steroid hormones to their respective hormone receptors.

[9] = molecular target: T2, progesterone receptor (Bos taurus, UniProt F1N712); assay: Inhibition of 3H-progesterone binding to bovine uteral progesterone receptors
T2 construct: from tissue; host or cells: bovine uterus cytosol
T2 sequence (F1N712 1-914): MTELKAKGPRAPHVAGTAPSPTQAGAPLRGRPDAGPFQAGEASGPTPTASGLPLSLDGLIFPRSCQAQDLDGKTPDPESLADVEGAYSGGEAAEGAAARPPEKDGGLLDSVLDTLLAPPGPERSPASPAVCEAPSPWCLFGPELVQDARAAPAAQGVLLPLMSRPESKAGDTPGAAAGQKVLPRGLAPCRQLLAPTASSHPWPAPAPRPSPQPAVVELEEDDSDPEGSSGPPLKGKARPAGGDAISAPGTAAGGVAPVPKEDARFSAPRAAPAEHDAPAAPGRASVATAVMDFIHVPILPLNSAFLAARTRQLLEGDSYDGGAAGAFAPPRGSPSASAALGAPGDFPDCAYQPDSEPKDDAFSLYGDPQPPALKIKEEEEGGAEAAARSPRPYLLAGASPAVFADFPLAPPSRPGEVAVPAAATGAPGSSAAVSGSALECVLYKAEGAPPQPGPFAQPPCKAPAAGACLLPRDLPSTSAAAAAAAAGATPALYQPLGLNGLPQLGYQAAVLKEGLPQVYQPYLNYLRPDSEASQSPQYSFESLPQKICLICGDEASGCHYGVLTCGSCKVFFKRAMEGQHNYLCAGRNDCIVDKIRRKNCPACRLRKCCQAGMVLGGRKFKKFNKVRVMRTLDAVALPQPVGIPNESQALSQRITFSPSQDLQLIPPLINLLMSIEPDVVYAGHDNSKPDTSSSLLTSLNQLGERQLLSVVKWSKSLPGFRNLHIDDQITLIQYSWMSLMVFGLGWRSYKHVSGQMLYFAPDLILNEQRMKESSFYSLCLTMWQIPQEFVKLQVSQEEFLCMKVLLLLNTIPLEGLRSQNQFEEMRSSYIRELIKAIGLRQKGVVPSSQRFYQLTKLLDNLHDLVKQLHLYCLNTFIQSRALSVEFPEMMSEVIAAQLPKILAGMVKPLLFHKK
Procedure: as §1
For the data presented in Table 9, bovine uteri cytosol was isolated as they were for Table 7 and used for following binding to progesterone receptors by following the inhibition of ^3 H-progesterone, the natural ligand.

[10] = molecular target: GABA receptor-chloride ionophore complex (GR complex); assay: [35S]TBPS binding modulation assay; conditions: for Max. Inhib., maximal % of specifically bound [35S]-TBPS displaced: saturating concentrations of test compound
[11] = tested on: GABA receptor complex (36Cl uptake, cerebral cortical synaptoneurosomes); assay: GABA-stimulated 36Cl uptake in rat cerebral cortical synaptoneurosomes; type: biochemical, rat (male Sprague-Dawley)
Procedure: In addition, the ability of the BZ clonazepam to modulate ^36 Cl uptake in the presence or absence of 5α-pregnandiol was evaluated.
The homogenate was diluted to a final volume of 40 mL with buffer and filtered through three layers of Nylon mesh (160 μm).
Aliquots of membrane preparation (200 μL) were preincubated at 30° C. for 10 min. The interaction was initiated by the simultaneous addition of drugs/steroids and 0.2 mL ^36 Cl (New England Nuclear Boston, Mass., 0.55 mCi/mmol, 0.8 μCi/ml) resulting in a total incubation volume of 0.4 mL. Steroids and test drugs were solubilized in dimethylsufoxide (DMSO) and added to the reaction mixture in 2 μL aliquots. An equal volume of vehicle was always included in the control reaction mixture. The mixture was gently mixed and ^36 Cl uptake terminated after 5 sec by the of 5 mL of ice cold buffer containing 100 μM picrotoxin (Sigma Chem Co.) followed immediately by rapid filtration through glass fiber filters (Whatman GF/C) under vacuum. The filters were washed twice with 5 mL of ice-cold buffer and the filter-bound radioactivity quantitated by liquid scintillation spectrophotometry. Specific uptake was calculated by subtracting the amount of ^36 Cl bound to the filters in the absence of synaptoneurosomes from that observed in their presence. Percent enhancement represents percent increase in uptake over that of basal ^36 Cl uptake. Statistical comparisons utilized the analysis of variance (ANOVA).

[12] = read-out: % of inhibition of 3H-progesterone binding, A, competitor 10^-5 M, 0.15 nM 3H-progesterone
[13] = read-out: % of inhibition of 3H-progesterone binding, B, competitor 10^-5 M, 0.25 nM 3H-progesterone
[14] = read-out: % of inhibition of 3H-progesterone binding, B, competitor 10^-6 M, 0.25 nM 3H-progesterone
[15] = read-out: IC50, inhibition of [35S]-TBPS binding, +5 μM GABA, in the presence of 5 μM GABA

Question: What does the source list for CCCC(CCC)C(=O)O [Valproate]?
Answer: ED50 MES (maximal electroshock) [1]: 272 mg/kg; ED50 MTZ (metrazol) [2]: 149 mg/kg; ED50 BIC (bicuculline) [3]: 360 mg/kg; ED50 PICRO (picrotoxin) [4]: 387 mg/kg; ED50 STR (strychnine) [5]: 293 mg/kg; LD50 [6]: 1105 mg/kg

Question: What does the source list for C[C@]12CC[C@@H](O)C[C@H]1CC[C@@H]1[C@@H]2CC[C@]2(C)[C@@H](C(=O)CO)CC[C@@H]12 [5β-PREGNAN-3α,21-DIOL-20-ONE]?
Answer: ED50 ([7]; inhibition of metrazol induced convulsions, read-out: Anti-Metrazol ED50): 10 mg/kg; inhibition at 1 µM [8]: 4%; inhibition at 10 µM [9, 12]: 19%; inhibition at 1 µM ([9]; read-out: % of inhibition of 3H-progesterone binding, A, competitor 10^-6 M, 0.15 nM 3H-progesterone): 6%; inhibition at 10 µM [9, 13]: 10%; inhibition at 1 µM [9, 14]: 2%; IC50 [10, 15]: 100 nM; Max. Inhib., maximal % of specifically bound [35S]-TBPS displaced [10]: 100%

Question: For CC(C)(O)[C@H]1CC[C@H]2[C@@H]3CC[C@H]4C[C@H](O)CC[C@]4(C)[C@H]3CC[C@]12C [3α,20-dihydroxy-20-methyl-5α-pregnane], which inhibition at 1 µM [8] is on record?
Answer: 0%

Question: And the IC50 [10, 15]?
Answer: 65 nM

Question: What about the “Max. Inhib., maximal % of specifically bound [35S]-TBPS displaced” value [10] of the same molecule?
Answer: 45%

Question: Which “% enhancement of basal 36Cl uptake” value ([11]; 5α-pregnanediol (3 μM), no GABA) does the source give for C[C@H](O)[C@H]1CC[C@H]2[C@@H]3CC[C@H]4C[C@H](O)CC[C@]4(C)[C@H]3CC[C@]12C [5α-pregnanediol, 5α-pregnan-3α,20α-diol] here?
Answer: 2 ± 1%

Question: And the “maximal enhancement of GABA-stimulated 36Cl uptake above GABA alone” value ([11]; 5α-pregnanediol at 3 μM, GABA 25 μM, FIG. 4)?
Answer: approximately 30%

Question: And the “concentration at which potentiation of GABA-stimulated 36Cl uptake reaches a plateau” value ([11]; FIG. 4)?
Answer: 3 µM

Question: What about the “% enhancement of basal 36Cl uptake” value ([11]; GABA (25 μM) + 5α-pregnanediol (3 μM)) of the same molecule?
Answer: 162±4%

Question: And the “% enhancement of basal 36Cl uptake” value ([11]; GABA (25 μM) + 5α-pregnanediol (3 μM) + clonazepam (1 μM))?
Answer: 192 ± 16%

Question: What about the “3α-OH-DHP potentiation of GABA-stimulated 36Cl uptake as antagonized by 5α-pregnanediol” value ([11]; from 60% to this value above GABA (25 μM) alone, 3α-OH-DHP 500 nM + 5α-pregnanediol) of the same molecule?
Answer: 31%

Question: What about the “effect on basal 36Cl uptake” value ([11]; steroid alone, no GABA) of the same molecule?
Answer: no effect

Question: And the ED50 ([7]; iv, read-out: Anti-Metrazol ED50 (iv))?
Answer: 40 mg/kg

Question: And the inhibition at 1 µM [8]?
Answer: 0%

Question: And the inhibition at 10 µM [9, 12]?
Answer: 2%

Question: What about the inhibition at 10 µM [9, 13] of the same molecule?
Answer: 3%

Question: What about the inhibition at 1 µM [9, 14] of the same molecule?
Answer: 1%

Question: What about the IC50 [10, 15] of the same molecule?
Answer: 82 nM

Question: And the IC50 ([10]; read-out: IC50, inhibition of [35S]-TBPS binding, No GABA, washed synaptoneurosomes, no GABA added)?
Answer: 359 nM

Question: What about the “Max. Inhib., maximal % of specifically bound [35S]-TBPS displaced” value [10] of the same molecule?
Answer: 52%
